By melting point is commonly meant the temperature, or range, at which the solid turns liquid.

The structures appear in SMILES notation.

Consider three molecules from US7964593B2, “Indolone-acetamide derivatives, processes for preparing them and their uses” (UCB Pharma, S.A., priority 2003, dated 2011).

For data set [1] the following is noted: compared with levetiracetam, literature statement; cited from earlier work.

With `C[C@H](C(N)=O)N1C(=O)Cc2cc(Cl)ccc21` (single isomer, unassigned) [Compound 33], the melting point fell in the range of 171 to 172 °C. Molecule `C[C@@H](C(N)=O)N1C(=O)Cc2cc(Cl)ccc21` (single isomer, unassigned) [Compound 34] returned a melting point of 171 to 172 °C. In the case of `CC[C@H](C(N)=O)N1CCCC1=O` [(R)-α-ethyl-2-oxo-1-pyrrolidine acetamide], the “activity in the treatment of epilepsy” value in data set [1] was “completely lacks activity”.
